Results taken from patent publication US9487483B2, “Complement pathway modulators and uses thereof” (priority 2012, dated 2016).

Biological target: Recombinant human factor D (Homo sapiens (Human), UniProt P00746)
Assay: biochemical
Format: biochemical
Conditions: Factor D inhibition data using Method 1; substrate Z-Lys-thiobenzyl, fluorescence readout; read-out: IC50
Procedure: Human Complement Factor D Assay: Method 1
Recombinant human factor D (expressed in E. coli and purified using standard methods) at 10 nM concentration is incubated with test compound at various concentrations for 1 hour at room temperature in 0.1 M Hepes buffer, pH 7.5, containing 1 mM MgCl2, 1 M NaCl and 0.05% CHAPS. […] IC50 values are calculated from percentage of inhibition of complement factor D-activity as a function of test compound concentration.

Sequence of Recombinant human factor D (P00746 26-253): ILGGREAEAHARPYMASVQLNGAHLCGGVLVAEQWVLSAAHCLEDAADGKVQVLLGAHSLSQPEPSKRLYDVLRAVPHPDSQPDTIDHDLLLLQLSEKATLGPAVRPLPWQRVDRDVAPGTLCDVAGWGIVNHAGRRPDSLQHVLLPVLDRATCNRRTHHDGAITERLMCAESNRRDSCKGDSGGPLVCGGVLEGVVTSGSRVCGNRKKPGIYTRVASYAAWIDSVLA

Structure (SMILES) | IC50
CC(=O)c1nn(CC(=O)N2[C@@H]3C[C@@H]3C[C@H]2C(=O)NC2CC(C)(C)C2)c2ccc(OCc3ncccn3)cc12 [Example 103, (1R,3S,5R)-2-{2-[3-Acetyl-5-(pyrimidin-2-ylmethoxy)-indazol-1-yl]-acetyl}-2-aza-bicyclo[3.1.0]hexane-3-carboxylic acid (3,3-dimethyl-cyclobutyl)-amide] | 36 nM
CC1(C)C[C@H](O)C[C@@H](NC(=O)[C@@H]2C[C@H]3C[C@H]3N2C(=O)Cn2nc(C(N)=O)c3ccccc32)C1 [Example 108, 1-{2-[(1R,3S,5R)-3-((1S,5S)-5-Hydroxy-3,3-dimethyl-cyclohexylcarbamoyl)-2-aza-bicyclo[3.1.0]hex-2-yl]-2-oxo-ethyl}-1H-indazole-3-carboxylic acid amide] | 2230 nM
CC1(C)C[C@@H](O)C[C@H](NC(=O)[C@@H]2C[C@H]3C[C@H]3N2C(=O)Cn2nc(C(N)=O)c3ccccc32)C1 [Example 109, 1-{2-[(1R,3S,5R)-3-((1R,5R)-5-Hydroxy-3,3-dimethyl-cyclohexylcarbamoyl)-2-aza-bicyclo[3.1.0]hex-2-yl]-2-oxo-ethyl}-1H-indazole-3-carboxylic acid amide] | 28 nM
CC1(C)CCCC(NC(=O)[C@@H]2C[C@@]3(CO)C[C@H]3N2C(=O)Cn2nc(C(N)=O)c3ccccc32)C1 (stereo partly drawn) [Example 110, 1-{2-[(1R,3S,5S)-3-(3,3-Dimethyl-cyclohexylcarbamoyl)-5-hydroxymethyl-2-aza-bicyclo[3.1.0]hex-2-yl]-2-oxo-thyl}-1H-indazole-3-carboxylic acid amide] | 48 nM
CC1(C)CCC[C@@H](NC(=O)[C@@H]2C[C@@]3(CO)C[C@H]3N2C(=O)Cn2nc(C(N)=O)c3ccccc32)C1 [Example 111, 1-{2-[(1R,3S,5S)-3-((R)-3,3-Dimethyl-cyclohexylcarbamoyl)-5-hydroxymethyl-2-aza-bicyclo[3.1.0]hex-2-yl]-2-oxo-ethyl}-1H-indazole-3-carboxylic acid amide] | 10 nM
CC1(C)CCC[C@H](NC(=O)[C@@H]2C[C@@]3(CO)C[C@H]3N2C(=O)Cn2nc(C(N)=O)c3ccccc32)C1 [Example 112, 1-{2-[(1R,3S,5S)-3-((S)-3,3-Dimethyl-cyclohexylcarbamoyl)-5-hydroxymethyl-2-aza-bicyclo[3.1.0]hex-2-yl]-2-oxo-ethyl}-1H-indazole-3-carboxylic acid amide] | 370 nM

Same assay, conditions: read-out: IC50

Structure (SMILES) | IC50
CC(=O)c1nn(CC(=O)N2[C@@H]3C[C@@H]3C[C@H]2C(=O)NC2CC(F)(F)C2)c2ccc(OCc3ncccn3)cc12 [Example 104, (1R,3S,5R)-2-{2-[3-Acetyl-5-(pyrimidin-2-ylmethoxy)-indazol-1-yl]-acetyl}-2-aza-bicyclo[3.1.0]hexane-3-carboxylic acid (3,3-difluoro-cyclobutyl)-amide] | 273 nM
CO[C@@H]1C[C@@H](NC(=O)[C@@H]2C[C@H]3C[C@H]3N2C(=O)Cn2nc(C(N)=O)c3ccccc32)CC(C)(C)C1 [Example 105, 1-{2-[(1R,3S,5R)-3-((1S,5S)-5-Methoxy-3,3-dimethyl-cyclohexylcarbamoyl)-2-aza-bicyclo[3.1.0]hex-2-yl]-2-oxo-ethyl}-1H-indazole-3-carboxylic acid amide] | 225 nM
CO[C@H]1C[C@H](NC(=O)[C@@H]2C[C@H]3C[C@H]3N2C(=O)Cn2nc(C(N)=O)c3ccccc32)CC(C)(C)C1 [Example 106, 1-{2-[(1R,3S,5R)-3-((1R,5R)-5-Methoxy-3,3-dimethyl-cyclohexylcarbamoyl)-2-aza-bicyclo[3.1.0]hex-2-yl]-2-oxo-ethyl}-1H-indazole-3-carboxylic acid amide] | 18 nM
COC1CC(NC(=O)[C@@H]2C[C@H]3C[C@H]3N2C(=O)Cn2nc(C(N)=O)c3ccccc32)CC(C)(C)C1 (stereo partly drawn) [Example 107, 1-{2-[(1R,3S,5R)-3-(cis-5-Methoxy-3,3-dimethyl-cyclohexylcarbamoyl)-2-aza-bicyclo[3.1.0]hex-2-yl]-2-oxo-ethyl}-1H-indazole-3-carboxylic acid amide] | 467 nM
